Assay results reported in PubChem BioAssay (NCI).
Values joined by “and” are separate entries in the source; they are usually repeats but may differ in a detail not shown here. Equal entries are not always repeated.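 Following 48 hours of exposure in 96-well plates, responses at five concentrations were used to interpolate endpoints linearly. GI50 marks 50% less growth. The concentration for full growth arrest is given as TGI.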

Tests used:
Experiment in all cases: growth of human tumour cells (NCI), 48 h
MDA-N = system: MDA-N
DLD-1 colon = system: DLD-1 colon
DMS 114 small cell lung = system: DMS 114 small cell lung
LXFL 529 NSCLC = system: LXFL 529 NSCLC
M19-MEL melanoma = system: M19-MEL melanoma
SNB-78 CNS = system: SNB-78 CNS
HOP-18 NSCLC = system: HOP-18 NSCLC
RXF-631 renal = system: RXF-631 renal
XF 498 CNS = system: XF 498 CNS

| SMILES | TGI (MDA-N) | TGI (DLD-1 colon) | TGI (DMS 114 small cell lung) | TGI (LXFL 529 NSCLC) | TGI (M19-MEL melanoma) | TGI (SNB-78 CNS) | TGI (HOP-18 NSCLC) | TGI (RXF-631 renal) | TGI (XF 498 CNS) | GI50 (DLD-1 colon) | GI50 (LXFL 529 NSCLC) | GI50 (SNB-78 CNS) |
| --- | --- | --- | --- | --- | --- | --- | --- | --- | --- | --- | --- | --- |
| Cc1cc(O)c2c(c1)C(=O)C(c1c(C)cc3c(c1O)C(=O)C1OC1C3=O)=CC2=O (stereo unspecified) | 2.75 µM | – | – | – | – | – | – | – | – | – | – | – |
| COC(=O)c1nn(C(=N)c2ccc(Cl)cc2)c2c1CCCCC2 | – | > 100 µM | > 100 µM | > 100 µM | > 100 µM | > 100 µM | – | – | – | – | – | – |
| CCOC(=O)/C(C#N)=C(N)/C(=N\Nc1cccc(C(F)(F)F)c1)C(=O)OCC | – | > 100 µM | > 100 µM | > 100 µM | > 100 µM | > 100 µM | > 100 µM | – | – | – | – | – |
| O=c1cccccc1NCCNc1cccccc1=O | – | – | > 100 µM | > 100 µM | > 100 µM | > 100 µM | – | > 100 µM | > 100 µM | – | – | – |
| CNC(C)Cc1ccc(O)cc1 (stereo unspecified) | – | > 100 µM | > 100 µM | > 100 µM | – | > 100 µM | > 100 µM | > 100 µM | > 100 µM | – | – | – |
| N[C@H](C(=O)O)[C@@H](Cl)CC(=O)O | – | > 100 µM | > 100 µM | > 100 µM | > 100 µM | > 100 µM | > 100 µM | – | > 100 µM | – | – | – |
| CC(C)N(Cc1ccccc1)S(=O)(=O)c1n[nH]c(C(C)(C)C)n1 | > 100 µM | – | – | – | – | – | – | – | – | – | – | – |
| COc1cc(N=Nc2cccc(S(N)(=O)=O)c2)c2ccccc2c1N | 5.63 µM | – | – | – | – | – | – | – | – | – | – | – |
| [N-]=[N+]=Nc1c(Br)c(=O)[nH]c(=O)n1COCCO | – | > 100 µM | > 100 µM | > 100 µM | > 100 µM | > 100 µM | > 100 µM | > 100 µM | > 100 µM | – | – | – |
| C/C=C/C(=O)[O-].N.N.N.N.N.[Co+3].[O-][Cl+3]([O-])([O-])[O-] | – | > 100 µM | – | > 100 µM | – | > 100 µM | – | – | – | > 100 µM | > 100 µM | > 100 µM |
| COc1cc2c3c(c1OC)Oc1ccc(cc1)CC1c4c(cc(OC)c(OC)c4Oc4ccc(cc4)CC3N(C)CC2)CCN1C (stereo unspecified) | – | > 100 µM | 35.9 µM | 39.6 µM | 31.3 µM | – | 84.2 µM | – | – | – | – | – |
| O=C(Nc1ccccc1C(=O)Nc1nccs1)c1ccccc1 | > 100 µM | – | – | – | – | – | – | – | – | – | – | – |
| O=C1C2=C(c3ccccc31)C(c1ccc(Cl)cc1)NC(=S)N2 (stereo unspecified) | – | 60.9 µM | 67.5 µM | 29.5 µM | 37.2 µM | – | – | – | – | – | – | – |
| O=[N+]([O-])c1ccc(NC(=S)N/N=C(\c2ccccc2)c2ccccn2)cc1 | 3.32 µM and 3.1 µM | – | – | – | – | – | – | – | – | – | – | – |
| COC(=O)/C(=N/O)C(C(=O)OC)C(=O)C(=O)Nc1c(Cl)cc(C)cc1S(=O)(=O)O (stereo unspecified) | – | > 100 µM | > 100 µM | > 100 µM | > 100 µM | > 100 µM | > 100 µM | > 100 µM | > 100 µM | – | – | – |
| Cc1ccc(C)c2c1CCc1cc3ccccc3nc1-2 | – | > 100 µM | > 100 µM | > 100 µM | > 100 µM | > 100 µM | > 100 µM | – | > 100 µM | – | – | – |
| Cc1cccc(O)c(=O)c1 | – | > 100 µM | 45.7 µM | > 100 µM | > 100 µM | > 100 µM | > 100 µM | – | – | – | – | – |
| O=C(Nc1ccccc1C(=O)O)C(=O)C(C(=O)c1ccccc1-c1ccccc1)C1OC(=O)c2ccccc21 (stereo unspecified) | – | 47 µM | – | 28 µM | 64.2 µM | > 100 µM | 28.2 µM | – | 22 µM | – | – | – |
| O=C1C2=C(c3ccccc31)C(c1ccc(F)cc1)N1C(=O)CCSC1=N2 (stereo unspecified) | – | > 100 µM | > 100 µM | > 100 µM | > 100 µM | – | – | – | > 100 µM | – | – | – |
